Measurements published in patent US20210186954A1, “DRUG PRODUCTS FOR NASAL ADMINISTRATION AND USES THEREOF” (Summit Biosciences Inc., priority 2018, published 2021).
Where two headings read alike, the source gives them in different places.

What was measured:
[1] = tested on: patients with suspected narcotic overdose; conditions: cited from earlier work
opiate addicts = conditions: nasal vs intravenous route; cited from earlier work
overdose events = conditions: 399 overdose events where naloxone was used; cited from earlier work
[2] = tested on: patients with suspected opioid overdose; conditions: cited from earlier work
[3] = tested on: suspected opiate overdose; conditions: 2 mg IN, cited from earlier work
[4] = 2 mg nasal solution dose; predicted by Wermeling; cited from earlier work
heroin overdose = conditions: IM naloxone; cited from earlier work
[5] = tested on: suspected opiate overdose; conditions: cited from earlier work
[6] = Dissolution of chlorobutanol in water during preparation of F1(d); assay type: physicochemical
Method: Chlorobutanol dissolves into water very slowly at ambient temperatures. Therefore during the preparation of F1(d), USP-PW was heated. After 18 minutes, the solution was clear and all of the chlorobutanol was completely dissolved.

Dissolution into water ([6]; ambient temperatures)	Time until solution clear and chlorobutanol completely dissolved ([6]; heated USP-PW, preparation of F1(d))	SMILES	clinical response ([1]; IN group)	clinical response ([1]; IV group)	effectiveness of nasal administration (opiate addicts)	overdose events reported reversed (overdose events)	mean interval from EMS arrival to respiratory rate ≥10 breaths/min ([2]; naloxone 0.4 mg IV)	mean interval from EMS arrival to respiratory rate ≥10 breaths/min ([2]; naloxone 0.8 mg SQ)	responders responding to IN naloxone alone ([3]; 43 of 52 responders)	median time from administration of IN naloxone to awakening [3]	Cmax [4]	tmax [4]	patients given supplementary naloxone (heroin overdose)	more than 10 spontaneous respirations per minute within 8 minutes ([5]; 2 mg IM)	more than 10 spontaneous respirations per minute within 8 minutes ([5]; 2 mg IN, mucosal atomizer)	needing rescue naloxone ([5]; IM group)	needing rescue naloxone ([5]; IN group)
–	–	C=CCN1CC[C@]23c4c5ccc(O)c4O[C@H]2C(=O)CC[C@@]3(O)[C@H]1C5 [naloxone, 17-allyl-4,5a-epoxy-3,14-dihydroxymorphinan-6-one]	66%	56%	as effective as the intravenous route	89%	9.3 ± 4.2 min	9.6 ± 4.58 min	83%	3.0 min	3 to 5 ng/mL	approximately 20 minutes	4.5%	82%	63%	13%	26%
very slowly	18 min	CC(C)(O)C(Cl)(Cl)Cl [Chlorobutanol, 1,1,1-trichloro-2-methylpropan-2-ol]	–	–	–	–	–	–	–	–	–	–	–	–	–	–	–
